Test results reported in US10660877B2 (BRISTOL-MYERS SQUIBB COMPANY, priority 2016, dated 2020).
Where two headings read alike, the source gives them in different places.

Key:
human TLR9 = human TLR9 (Homo sapiens (Human), UniProt Q9NR96); experiment: TLR9 inhibition reporter assay (HEK-Blue cells, SEAP reporter, ODN2006 stimulation);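 note: compounds tested over 0.05 nM to 50 µM, 22 h incubation, inhibition taken as SEAP signal drop from agonist plus DMSO wells toward a known inhibitor control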
human TLR8 = human TLR8 (Homo sapiens (Human), UniProt Q9NR97); experiment: TLR8 inhibition reporter assay (HEK-Blue cells, SEAP reporter, R848 stimulation);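 note: compounds tested from 0.05 nM to 50 µM, 22 h at 37 °C, SEAP measured with HEK-Blue Detection, inhibition relative to agonist plus DMSO versus a known inhibitor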
human TLR7 = human TLR7 (Homo sapiens (Human), UniProt Q9NYK1); experiment: TLR7 inhibition reporter assay (HEK-Blue cells, SEAP reporter, gardiquimod stimulation); assay type: cell-based
[1] = read-out: TLR9 IC50, HEK-Blue cells overexpressing human TLR9, ODN2006 5 nM
[2] = read-out: TLR8 IC50, HEK-Blue cells overexpressing human TLR8, R848 15.9 μM
[3] = HEK-Blue cells overexpressing human TLR7, gardiquimod 7.5 μM
[4] = read-out: TLR9 IC50, HEK-Blue cells, ODN2006 5 nM
[5] = read-out: TLR8 IC50, HEK-Blue cells, R848 15.9 μM
[6] = HEK-Blue cells, gardiquimod 7.5 μM

human TLR9, sequence (Q9NR96 26-1032): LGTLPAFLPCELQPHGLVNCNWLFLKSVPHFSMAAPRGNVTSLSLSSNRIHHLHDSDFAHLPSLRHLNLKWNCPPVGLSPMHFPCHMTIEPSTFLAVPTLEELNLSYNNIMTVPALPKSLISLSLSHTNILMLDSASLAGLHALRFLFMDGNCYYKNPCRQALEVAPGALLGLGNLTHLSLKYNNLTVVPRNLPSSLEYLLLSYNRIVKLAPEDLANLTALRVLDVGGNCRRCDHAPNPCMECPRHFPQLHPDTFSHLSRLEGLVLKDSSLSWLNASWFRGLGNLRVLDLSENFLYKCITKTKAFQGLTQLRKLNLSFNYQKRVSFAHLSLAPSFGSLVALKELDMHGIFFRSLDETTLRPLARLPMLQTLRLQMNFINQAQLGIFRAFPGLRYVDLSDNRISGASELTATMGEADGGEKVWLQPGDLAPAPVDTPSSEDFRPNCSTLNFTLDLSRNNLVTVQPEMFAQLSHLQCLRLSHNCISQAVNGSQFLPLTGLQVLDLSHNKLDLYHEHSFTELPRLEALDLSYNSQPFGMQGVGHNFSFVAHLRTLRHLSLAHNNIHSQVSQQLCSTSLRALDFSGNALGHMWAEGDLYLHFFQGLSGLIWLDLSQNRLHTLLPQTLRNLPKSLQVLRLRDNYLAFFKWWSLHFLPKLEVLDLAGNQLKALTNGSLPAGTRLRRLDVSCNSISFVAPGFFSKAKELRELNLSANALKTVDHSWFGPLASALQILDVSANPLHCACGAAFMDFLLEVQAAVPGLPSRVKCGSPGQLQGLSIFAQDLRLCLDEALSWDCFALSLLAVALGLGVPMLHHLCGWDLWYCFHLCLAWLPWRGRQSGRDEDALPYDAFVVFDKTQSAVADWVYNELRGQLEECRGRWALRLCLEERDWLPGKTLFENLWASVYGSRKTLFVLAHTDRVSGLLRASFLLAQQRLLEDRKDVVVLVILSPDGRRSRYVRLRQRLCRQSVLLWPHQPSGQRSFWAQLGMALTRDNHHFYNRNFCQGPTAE
human TLR7, sequence (Q9NYK1 27-1049): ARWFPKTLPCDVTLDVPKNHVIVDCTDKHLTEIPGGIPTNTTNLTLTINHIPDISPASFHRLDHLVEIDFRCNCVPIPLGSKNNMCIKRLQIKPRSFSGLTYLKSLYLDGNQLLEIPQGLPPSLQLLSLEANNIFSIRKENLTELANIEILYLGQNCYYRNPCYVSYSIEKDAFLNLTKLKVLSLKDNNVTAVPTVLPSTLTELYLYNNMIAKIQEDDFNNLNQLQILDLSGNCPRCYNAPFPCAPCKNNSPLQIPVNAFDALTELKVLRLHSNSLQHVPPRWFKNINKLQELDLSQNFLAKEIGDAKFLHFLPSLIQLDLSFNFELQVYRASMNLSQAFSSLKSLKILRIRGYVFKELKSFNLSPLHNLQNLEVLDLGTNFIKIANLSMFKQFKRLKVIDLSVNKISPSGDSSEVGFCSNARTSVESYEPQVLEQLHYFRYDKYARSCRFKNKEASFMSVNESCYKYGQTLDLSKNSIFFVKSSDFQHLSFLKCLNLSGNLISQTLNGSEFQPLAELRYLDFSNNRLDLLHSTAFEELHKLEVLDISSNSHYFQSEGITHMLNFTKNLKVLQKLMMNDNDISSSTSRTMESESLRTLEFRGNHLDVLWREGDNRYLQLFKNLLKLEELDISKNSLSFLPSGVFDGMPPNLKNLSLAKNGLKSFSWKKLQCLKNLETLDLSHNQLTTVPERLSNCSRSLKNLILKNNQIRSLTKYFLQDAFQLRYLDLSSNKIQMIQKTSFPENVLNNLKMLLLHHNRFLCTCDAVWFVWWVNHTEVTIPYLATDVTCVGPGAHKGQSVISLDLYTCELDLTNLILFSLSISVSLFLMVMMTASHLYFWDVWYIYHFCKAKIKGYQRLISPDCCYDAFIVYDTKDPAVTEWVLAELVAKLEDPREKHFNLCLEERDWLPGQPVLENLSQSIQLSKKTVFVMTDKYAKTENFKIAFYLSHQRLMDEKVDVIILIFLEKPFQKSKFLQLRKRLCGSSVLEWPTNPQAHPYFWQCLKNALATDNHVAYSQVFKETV
human TLR8, sequence (Q9NR97 27-1041): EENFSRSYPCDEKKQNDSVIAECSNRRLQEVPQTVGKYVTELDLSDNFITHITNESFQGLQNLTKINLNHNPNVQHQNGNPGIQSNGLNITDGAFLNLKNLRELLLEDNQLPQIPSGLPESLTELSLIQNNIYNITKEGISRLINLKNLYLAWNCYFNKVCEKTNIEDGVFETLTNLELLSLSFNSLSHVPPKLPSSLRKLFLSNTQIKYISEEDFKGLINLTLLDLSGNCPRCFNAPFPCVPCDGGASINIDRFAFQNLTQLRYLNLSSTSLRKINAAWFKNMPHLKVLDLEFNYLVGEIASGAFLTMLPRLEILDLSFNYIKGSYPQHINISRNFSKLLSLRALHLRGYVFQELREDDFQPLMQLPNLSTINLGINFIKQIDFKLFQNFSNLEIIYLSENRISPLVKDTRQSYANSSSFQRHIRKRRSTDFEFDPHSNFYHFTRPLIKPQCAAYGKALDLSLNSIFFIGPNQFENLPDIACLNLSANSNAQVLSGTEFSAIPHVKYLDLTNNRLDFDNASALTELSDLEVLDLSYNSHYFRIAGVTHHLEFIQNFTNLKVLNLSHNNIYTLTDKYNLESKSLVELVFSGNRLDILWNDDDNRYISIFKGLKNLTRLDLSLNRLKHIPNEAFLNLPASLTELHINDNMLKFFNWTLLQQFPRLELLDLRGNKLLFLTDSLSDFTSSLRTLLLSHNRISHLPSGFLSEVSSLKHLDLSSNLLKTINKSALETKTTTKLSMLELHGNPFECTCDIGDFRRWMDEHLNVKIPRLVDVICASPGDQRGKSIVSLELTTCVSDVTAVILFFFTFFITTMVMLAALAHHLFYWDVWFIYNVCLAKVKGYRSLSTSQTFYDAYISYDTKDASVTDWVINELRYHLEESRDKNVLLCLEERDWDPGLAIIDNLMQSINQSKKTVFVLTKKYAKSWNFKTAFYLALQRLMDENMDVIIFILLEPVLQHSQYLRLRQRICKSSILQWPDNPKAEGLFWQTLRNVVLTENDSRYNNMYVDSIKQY

| Structure (SMILES) | IC50 (human TLR9; [1]) [nM] | IC50 (human TLR8; [2]) [nM] | IC50 (human TLR7; [3]) [nM] | IC50 (human TLR9; TLR9 IC50, HEK-Blue cells overexpressing human TLR9, ODN2006 5 nM) [nM] | IC50 (human TLR8; TLR8 IC50, HEK-Blue cells overexpressing human TLR8, R848 15.9 μM) [nM] | IC50 (human TLR9; [4]) [nM] | IC50 (human TLR8; [5]) [nM] | IC50 (human TLR7; [6]) [nM] |
| --- | --- | --- | --- | --- | --- | --- | --- | --- |
| Cc1cc(-c2[nH]c3ccc(C4CCN(CC(=O)N5CC(F)(F)C5)CC4)cc3c2C(C)C)cc(C)n1 [Example 215, 1-(3,3-difluoroazetidin-1-yl)-2-(4-(2-(2,6-dimethylpyridin-4-yl)-3-isopropyl-1H-indol-5-yl)piperidin-1-yl)ethan-1-one] | 680 | 6 | 4.9 |  |  |  |  |  |
| Cc1cc(-c2[nH]c3ccc(C4CCNCC4)cc3c2C2CC2)ccn1 [Example 88, 3-cyclopropyl-2-(2-methylpyridin-4-yl)-5-(piperidin-4-yl)-1H-indole] | 71 | 7 | 11.9 |  |  |  |  |  |
| Cc1cc(-c2[nH]c3ccc(C4CCN(C(=O)CN5CCC(F)(F)C5)CC4)cc3c2C(C)C)cc(C)n1 [Example 341, 2-(3,3-difluoropyrrolidin-1-yl)-1-(4-(2-(2,6-dimethylpyridin-4-yl)-3-isopropyl-1H-indol-5-yl)piperidin-1-yl)ethan-1-one] | 25400 | 211 | 22.7 |  |  |  |  |  |
| Cc1cc(-c2[nH]c3ccc(C4CCN(C5CCCOC5)CC4)cc3c2C(C)C)cc(C)n1 (stereo not drawn) [Example 457, 2-(2,6-dimethylpyridin-4-yl)-3-isopropyl-5-(1-(tetrahydro-2H-pyran-3-yl)piperidin-4-yl)-1H-indole] | 274 | 8.7 | 2.7 |  |  |  |  |  |
| Cc1cc(-c2[nH]c3ccc(C4CCN(Cc5c[nH]nn5)CC4)cc3c2C(C)C)c(F)cn1 [Example 691] | 2570 | 2.6 | 7 |  |  |  |  |  |
| Cc1cc(-c2[nH]c3ccc(C4CCN(C(C)C)CC4)cc3c2CC(F)F)cc(C)n1 [Example 536, 3-(2,2-difluoroethyl)-2-(2,6-dimethylpyridin-4-yl)-5-(1-isopropylpiperidin-4-yl)-1H-indole] | 123 | 20.3 | 12.1 |  |  |  |  |  |
| Cc1cc(-c2[nH]c3ccc(C4CCN(Cc5cc(C)on5)CC4)cc3c2C(C)C)c(F)cn1 [Example 686, 3-((4-(2-(5-fluoro-2-methylpyridin-4-yl)-3-isopropyl-1H-indol-5-yl)piperidin-1-yl)methyl)-5-methylisoxazole] | 9450 | 4.1 | 35.2 |  |  |  |  |  |
| Cc1cc(-c2[nH]c3ccc(C4CCN(C(=O)Cc5cc(N)n[nH]5)CC4)cc3c2C(C)C)cc(C)n1 [Example 139, 2-(3-amino-1H-pyrazol-5-yl)-1-(4-(2-(2,6-dimethylpyridin-4-yl)-3-isopropyl-1H-indol-5-yl)piperidin-1-yl)ethan-1-one] |  |  | 5.7 | 8860 | 47.7 |  |  |  |
| Cc1cc(-c2[nH]c3ccc(C4CCN(C5CC(C)OC(C)C5)CC4)cc3c2C(C)C)ccn1 (stereo not drawn) [Example 712, 5-(1-(2,6-dimethyltetrahydro-2H-pyran-4-yl)piperidin-4-yl)-3-isopropyl-2-(2-methylpyridin-4-yl)-1H-indole] | 1190 | 16.4 | 36.8 |  |  |  |  |  |
| COc1cc(-c2[nH]c3ccc(C4CCN(C5CCN(C)CC5)CC4)cc3c2C(C)C)ccn1 [Example 795, 3-isopropyl-2-(2-methoxypyridin-4-yl)-5-(1′-methyl-[1,4′-bipiperidin]-4-yl)-1H-indole] | 851 | 12.5 | 129 |  |  |  |  |  |
| Cc1cc(-c2[nH]c3ccc(C4CCN(C(=O)C5(C)COC5)CC4)cc3c2C(C)C)ccn1 [Example 596, (4-(3-isopropyl-2-(2-methylpyridin-4-yl)-1H-indol-5-yl)piperidin-1-yl)(3-methyloxetan-3-yl)methanone] | 44500 | 102 | 33.3 |  |  |  |  |  |
| COC1CN(C(=O)CN2CCC(c3ccc4[nH]c(-c5cc(C)nc(C)c5)c(C(C)C)c4c3)CC2)C1 [Example 226, 2-(4-(2-(2,6-dimethylpyridin-4-yl)-3-isopropyl-1H-indol-5-yl)piperidin-1-yl)-1-(3-methoxyazetidin-1-yl)ethan-1-one] | 759 | 12.4 | 5.4 |  |  |  |  |  |
| CCc1c(-c2cc(C)nc(C)c2)[nH]c2ccc(C3CCN(C(=O)C4CC(=O)N(C)C4)CC3)cc12 (stereo not drawn) [Example 530, 4-(4-(2-(2,6-dimethylpyridin-4-yl)-3-ethyl-1H-indol-5-yl)piperidine-1-carbonyl)-1-methylpyrrolidin-2-one] | 5270 | 398 | 52.2 |  |  |  |  |  |
| Cc1cc(-c2[nH]c3ccc(C4CCN(S(=O)(=O)C5CC5)CC4)cc3c2C(C)C)ccn1 [Example 555, 5-(1-(cyclopropylsulfonyl)piperidin-4-yl)-3-isopropyl-2-(2-methylpyridin-4-yl)-1H-indole] | > 50000 | 92.1 | 34.9 |  |  |  |  |  |
| Cc1cc(-c2[nH]c3ccc(C4CCN(CCC#N)CC4)cc3c2C(C)C)c(F)cn1 [Example 656, 3-(4-(2-(5-fluoro-2-methylpyridin-4-yl)-3-isopropyl-1H-indol-5-yl)piperidin-1-yl)propanenitrile] | > 50000 | 1.9 | 9.3 |  |  |  |  |  |
| Cc1cc(-c2[nH]c3ccc(C4CCN(CC5CC5)CC4)cc3c2C(C)C)ccn1 [Example 866, 5-(1-(cyclopropylmethyl)piperidin-4-yl)-3-isopropyl-2-(2-methylpyridin-4-yl)-1H-indole] |  |  |  |  |  | 1690 | 12.2 | 38.1 |
| CC(C)c1c(-c2ccncc2NC(=O)C(C)(C)C)[nH]c2ccc(C3CCNCC3)cc12 [Example 37, N-(4-(3-isopropyl-5-(piperidin-4-yl)-1H-indol-2-yl)pyridin-3-yl) pivalamide] | 6100 | 635 | 42700 |  |  |  |  |  |
| Cc1cc(-c2[nH]c3ccc(C4CCN(C(C)C)CC4)cc3c2C(C)C)c(C)cn1 [Example 641, 2-(2,5-dimethylpyridin-4-yl)-3-isopropyl-5-(1-isopropylpiperidin-4-yl)-1H-indole] | 2670 | 9.7 | 33 |  |  |  |  |  |
| Cc1cc(-c2[nH]c3ccc(C4CCN(CC(=O)N(C)C)CC4)cc3c2C(C)C)cc(C2CC2)n1 [Example 505, 2-(4-(2-(2-cyclopropyl-6-methylpyridin-4-yl)-3-isopropyl-1H-indol-5-yl)piperidin-1-yl)-N,N-dimethylacetamide] | 710 | 27.1 | 5.9 |  |  |  |  |  |
| Cc1cc(-c2[nH]c3ccc(C4CCN(C(=O)CCC5CCNCC5)CC4)cc3c2C(C)C)ccn1 [Example 568, 1-(4-(3-isopropyl-2-(2-methylpyridin-4-yl)-1H-indol-5-yl)piperidin-1-yl)-3-(piperidin-4-yl)propan-1-one] | 572 | 13.6 | 11.9 |  |  |  |  |  |
| CC(C)c1c(-c2ccncc2F)[nH]c2ccc(C3CCNCC3)cc12 [Example 7, 2-(3-fluoropyridin-4-yl)-3-isopropyl-5-(piperidin-4-yl)-1H-indole] | 3540 | 195 | 590 |  |  |  |  |  |
| Cc1cc(-c2[nH]c3ccc(C4CCNCC4)cc3c2C(C)C)c(C#N)c(NCC2CC2)n1 [Example 32, 2-((cyclopropylmethyl)amino)-4-(3-isopropyl-5-(piperidin-4-yl)-1H-indol-2-yl)-6-methylnicotinonitrile] | 3990 | 3680 | 4070 |  |  |  |  |  |
| Cc1cc(-c2[nH]c3ccc(C4CCN(C(=O)C5(N(C)C)CC5)CC4)cc3c2C(C)C)cc(C)n1 [Example 172, (1-(dimethylamino)cyclopropyl)(4-(2-(2,6-dimethylpyridin-4-yl)-3-isopropyl-1H-indol-5-yl)piperidin-1-yl)methanone] | 5100 | 101 | 7.9 |  |  |  |  |  |
| Cc1cc(-c2[nH]c3ccc(C4CCN(CC(=O)N(C)C)CC4)cc3c2C(C)C)c(Cl)c(C)n1 [Example 644, 2-(4-(2-(3-chloro-2,6-dimethylpyridin-4-yl)-3-isopropyl-1H-indol-5-yl)piperidin-1-yl)-N,N-dimethylacetamide] | 2300 | 6 | 7.7 |  |  |  |  |  |
| CC(=O)N1CCC(c2ccc3[nH]c(-c4cc(C)nc(F)c4)c(C(C)C)c3c2)CC1 [Example 499, 1-(4-(2-(2-fluoro-6-methylpyridin-4-yl)-3-isopropyl-1H-indol-5-yl)piperidin-1-yl)ethan-1-one] | > 50000 | 10700 | 3690 |  |  |  |  |  |
| COCCCN1CCC(c2ccc3[nH]c(-c4cc(C)nc(C)c4)c(C(C)C)c3c2)CC1 [Example 330, 2-(2,6-dimethylpyridin-4-yl)-3-isopropyl-5-(1-(3-methoxypropyl)piperidin-4-yl)-1H-indole] | 999 | 4.2 | 3.7 |  |  |  |  |  |
| Cc1cc(-c2[nH]c3ccc(C4CCN(C5CCCOC5)CC4)cc3c2C(C)C)ccn1 (stereo not drawn) [Example 718, 3-isopropyl-2-(2-methylpyridin-4-yl)-5-(1-(tetrahydro-2H-pyran-3-yl)piperidin-4-yl)-1H-indole] | 855 | 6.1 | 22.8 |  |  |  |  |  |
| COCCN1CCC(c2ccc3[nH]c(-c4cc(C)nc(C)c4)c(C(C)C)c3c2)CC1 [Example 325, 2-(2,6-dimethylpyridin-4-yl)-3-isopropyl-5-(1-(2-methoxyethyl)piperidin-4-yl)-1H-indole] | 343 | 3.8 | 3.1 |  |  |  |  |  |
| CC(=O)N1CCC(c2ccc3[nH]c(-c4ccnc(C)c4)c(C(C)C)c3c2)CC1 [Example 826, 1-(4-(3-isopropyl-2-(2-methylpyridin-4-yl)-1H-indol-5-yl)piperidin-1-yl)ethan-1-one] |  |  |  |  |  | 43400 | 186 | 42.6 |
